Marks after values point to notes of the source that are not given here.
What was measured:
Type in all cases: in vivo, rat
[1] = system: thymus weight in rats; assay: Thymus inhibition testing (subcutaneous administration); conditions: for Body weight gain / Thymus / Thymus Inhibition / Thymus wt. / Thymus wt. Inhibition: three days
Method: Several further studies were undertaken to determine the effects of selected compounds of the invention on thymi weights in rats when the drugs were systemically administered. In each of these studies, male Sprague-Dawley rats were used. […] On the fifth day (48 hours following the last treatment), the animals were sacrificed and the thymi weights were recorded. […] It is evident that the higher the inhibition of thymus activity at a given dose, the more toxic the compound is.

[2] = system: blank cotton pellet granuloma; assay: Blank cotton pellet granuloma assay (intravenous administration); conditions: 3 days
Method: A further test was undertaken to determine the thymolytic activity of a representative species of the invention as compared to betamethasone 17-valerate. In this test, the drugs were administered intravenously to rats, while using a blank cotton pellet granuloma assay. Male Sprague-Dawley rats, each weighing about 185 grams (166-196 grams), were used. Two cotton pellets, each weighing 30 mg and containing no test compounds, were sterilized and implanted sub-cutaneously into the back of each test animal. This day was considered day 0 of implantation. Test compounds suspended in 0.8% polysorbate 80 were administered intravenously once daily for 3 consecutive days beginning with day 1. On day 5, the animals were sacrificed and the two pellets, with their respective granulomas, were removed, dried overnight in an oven at 50° C. and weighed (dry granuloma weight). The thymi and final body weights were also recorded.
In the foregoing tests, there was determined the deactivation of the representative species of the present soft steroids administered intravenously to rats. […] The test compounds were administered intravenously to rats to check the test compounds also for systemic anti-inflammatory activity as compared to betamethasone 17-valerate. The test compounds were found lower in the inhibition of granulation tissue formation and also in the thymus involution activity than betamethasone 17-valerate. From the results of the tests, it is presumed that the compounds which will not be readily subjected to metabolism (deactivation) have a systemic anti-inflammatory activity, as is the case with betamethasone 17-valerate.

[3] = system: granulation tissue formation caused by implantation of cotton pellets; assay: Granuloma formation test (local cotton pellet granuloma assay); conditions: for Relative potency (ED40) / Relative potency (ED60): chloromethyl 11β-hydroxy-17α-isopropoxycarbonyloxyandrost-4-en-3-one-17β-carboxylate = 1; for ED40: dose causing 40% inhibition of granulation tissue weight; for ED60: dose causing 60% inhibition of granulation tissue weight
Method: The test compound was dissolved in acetone and aliquots of varying concentrations were injected into cotton pellets. The pellets were dried and then one pellet was implanted beneath the skin of each test rat. Six days later, the animals were sacrificed and the granulation tissue (granuloma) which formed in and around the implanted pellet was removed, dried and weighed. In addition, the thymi and adrenals were removed and weighed.

[4] = Table X, betamethasone 17-valerate = 1
[5] = dose causing 50% inhibition of granulation tissue weight

In the case of `CCOC(=O)O[C@]1(C(=O)OCCl)[C@H](C)C[C@H]2[C@@H]3CCC4=CC(=O)C=C[C@]4(C)[C@@]3(F)[C@@H](O)C[C@@]21C` [chloromethyl 17α-ethoxycarbonyloxy-9α-fluoro-11β-hydroxy-16α-methylandrosta-1,4-dien-3-one-17β-carboxylate], the Body weight gain ([1]; Table VII, 1 mg/kg/day s.c.) is reported as 13.1 ± 1.0 g, the Thymus ([1]; Table VII, 1 mg/kg/day s.c.) is reported as 428 ± 20 mg and the “Thymus Inhibition” value ([1]; Table VII, 1 mg/kg/day s.c.) is reported as 9.1%. For the same molecule, the Body weight gain ([1]; Table VII, 3 mg/kg/day s.c.) was 12.7 ± 1.4 g, the Thymus ([1]; Table VII, 3 mg/kg/day s.c.) was 412 ± 20 mg and the “Thymus Inhibition” value ([1]; Table VII, 3 mg/kg/day s.c.) was 12.5%. The Body weight gain ([1]; Table VII, 10 mg/kg/day s.c.) was 9.7 ± 1.3 g, the Thymus ([1]; Table VII, 10 mg/kg/day s.c.) was 405 ± 21 mg and the “Thymus Inhibition” value ([1]; Table VII, 10 mg/kg/day s.c.) was 14.0%. For the same molecule, the Body weight gain ([1]; Table VII, 30 mg/kg/day s.c.) was 4.4 ± 0.7 g, the Thymus ([1]; Table VII, 30 mg/kg/day s.c.) was 292 ± 15 mg and the “Thymus Inhibition” value ([1]; Table VII, 30 mg/kg/day s.c.) was 38.0%. The Body weight gain ([1]; Table VIII, 10 mg/kg/day s.c.) was 14.2 ± 1.9 g, the Thymus wt. ([1]; Table VIII, 10 mg/kg/day s.c.) was 533 ± 31 mg and the “Thymus wt. Inhibition” value ([1]; Table VIII, 10 mg/kg/day s.c.) was 3.1%. For the same molecule, the “Relative Potency (TED40)” value [1, 4] was 0.0058, the “Relative Potency (TED50)” value [1, 4] was less than 0.011 and the TED40 ([1]; Table X, dose required to achieve 40% inhibition of thymi weight, subcutaneous) was 51.5 mg. For the same molecule, the TED50 ([1]; Table X, dose required to achieve 50% inhibition of thymi weight, subcutaneous) was <51.5^a mg, the “Relative Potency (TED40)” value ([1]; Table XII, hydrocortisone 17-butyrate = 1) was 1/40 and the TED40 ([1]; Table XII, thymus inhibition effect, subcutaneously) was 51.5 mg/kg. The Body wt. gain ([2]; 1 mg/kg/day i.v.) was 14.1 ± 1.4 g, the Dry granuloma wt. ([2]; 1 mg/kg/day i.v.) was 50.1 ± 6.9 mg and the “Dry granuloma wt. Inhibition” value ([2]; 1 mg/kg/day i.v.) was 20.1%. The Thymus wt. ([2]; 1 mg/kg/day i.v.) was 373 ± 25 mg, the “Thymus wt. Decrease” value ([2]; 1 mg/kg/day i.v.) was 11.6% and the Body wt. gain ([2]; 3 mg/kg/day i.v.) was 14.2 ± 1.3 g. For the same molecule, the Dry granuloma wt. ([2]; 3 mg/kg/day i.v.) was 49.3 ± 5.1 mg, the “Dry granuloma wt. Inhibition” value ([2]; 3 mg/kg/day i.v.) was 21.4% and the Thymus wt. ([2]; 3 mg/kg/day i.v.) was 338 ± 20 mg. The “Thymus wt. Decrease” value ([2]; 3 mg/kg/day i.v.) was 19.9%, the Body wt. gain ([2]; 10 mg/kg/day i.v.) was 0.3 ± 1.7 g and the Dry granuloma wt. ([2]; 10 mg/kg/day i.v.) was 45.7 ± 4.6 mg. For the same molecule, the “Dry granuloma wt. Inhibition” value ([2]; 10 mg/kg/day i.v.) was 27.1%, the Thymus wt. ([2]; 10 mg/kg/day i.v.) was 209 ± 31 mg and the “Thymus wt. Decrease” value ([2]; 10 mg/kg/day i.v.) was 50.5%. The Body wt. gain ([2]; 30 mg/kg/day i.v.) was -18.5 ± 2.3 g, the Dry granuloma wt. ([2]; 30 mg/kg/day i.v.) was 32.7 ± 3.0 mg and the “Dry granuloma wt. Inhibition” value ([2]; 30 mg/kg/day i.v.) was 47.8%. The Thymus wt. ([2]; 30 mg/kg/day i.v.) was 71 ± 4 mg, the “Thymus wt. Decrease” value ([2]; 30 mg/kg/day i.v.) was 83.2% and the Body wt. gain ([3]; Table IV, 0.3 μg/pellet) was 32.4 ± 1.1 g. For the same molecule, the “Granulation tissue Dry wt.” value ([3]; Table IV, 0.3 μg/pellet) was 57.3 ± 5.0 mg, the “Granulation tissue Dry wt. Inhibition” value ([3]; Table IV, 0.3 μg/pellet) was 29.4% and the “Granulation tissue Wet wt.” value ([3]; Table IV, 0.3 μg/pellet) was 472 ± 23 mg. For the same molecule, the “Granulation tissue Wet wt. Inhibition” value ([3]; Table IV, 0.3 μg/pellet) was 16.6%, the Thymus wt. ([3]; Table IV, 0.3 μg/pellet) was 492 ± 26 mg and the Body wt. gain ([3]; Table IV, 1 μg/pellet) was 37.3 ± 1.5 g. For the same molecule, the “Granulation tissue Dry wt.” value ([3]; Table IV, 1 μg/pellet) was 36.4 ± 2.4 mg, the “Granulation tissue Dry wt. Inhibition” value ([3]; Table IV, 1 μg/pellet) was 55.2% and the “Granulation tissue Wet wt.” value ([3]; Table IV, 1 μg/pellet) was 388 ± 31 mg. For the same molecule, the “Granulation tissue Wet wt. Inhibition” value ([3]; Table IV, 1 μg/pellet) was 31.4%, the Thymus wt. ([3]; Table IV, 1 μg/pellet) was 519 ± 22 mg and the Body wt. gain ([3]; Table IV, 3 μg/pellet) was 34.3 ± 1.1 g. For the same molecule, the “Granulation tissue Dry wt.” value ([3]; Table IV, 3 μg/pellet) was 27.4 ± 2.9 mg, the “Granulation tissue Dry wt. Inhibition” value ([3]; Table IV, 3 μg/pellet) was 66.3% and the “Granulation tissue Wet wt.” value ([3]; Table IV, 3 μg/pellet) was 331 ± 11 mg. The “Granulation tissue Wet wt. Inhibition” value ([3]; Table IV, 3 μg/pellet) was 41.5%, the Thymus wt. ([3]; Table IV, 3 μg/pellet) was 472 ± 16 mg and the Body wt. gain ([3]; Table IV, 10 μg/pellet) was 36.1 ± 1.1 g. The “Granulation tissue Dry wt.” value ([3]; Table IV, 10 μg/pellet) was 22.1 ± 3.6 mg, the “Granulation tissue Dry wt. Inhibition” value ([3]; Table IV, 10 μg/pellet) was 72.8% and the “Granulation tissue Wet wt.” value ([3]; Table IV, 10 μg/pellet) was 313 ± 13 mg. The “Granulation tissue Wet wt. Inhibition” value ([3]; Table IV, 10 μg/pellet) was 44.7%, the Thymus wt. ([3]; Table IV, 10 μg/pellet) was 521 ± 35 mg and the Body wt. gain ([3]; Table IV, 30 μg/pellet) was 31.3 ± 1.4 g. For the same molecule, the “Granulation tissue Dry wt.” value ([3]; Table IV, 30 μg/pellet) was 20.4 ± 2.4 mg, the “Granulation tissue Dry wt. Inhibition” value ([3]; Table IV, 30 μg/pellet) was 74.9% and the “Granulation tissue Wet wt.” value ([3]; Table IV, 30 μg/pellet) was 290 ± 10 mg. The “Granulation tissue Wet wt. Inhibition” value ([3]; Table IV, 30 μg/pellet) was 48.8%, the Thymus wt. ([3]; Table IV, 30 μg/pellet) was 505 ± 26 mg and the ED50 ([3]; Table XII, anti-inflammatory effect in cotton pellet granuloma) was 1.07 μg/pellet. For the same molecule, the “Relative potency (ED40)” value [3] was 653, the “Relative potency (ED60)” value [3] was 283 and the ED40 [3] was 0.47 μg/pellet. It also gave an ED50 [3, 5] of 1.07 μg/pellet and an ED60 [3] of 2.44 μg/pellet.

`CCCOC(=O)O[C@]1(C(=O)OCCl)[C@H](C)C[C@H]2[C@@H]3CCC4=CC(=O)C=C[C@]4(C)[C@@]3(F)[C@@H](O)C[C@@]21C` [chloromethyl 9α-fluoro-11β-hydroxy-16α-methyl-17α-propoxycarbonyloxyandrosta-1,4-dien-3-one-17β-carboxylate] was tested, and the Body weight gain ([1]; Table VIII, 10 mg/kg/day s.c.) was 2.7 ± 1.7 g, the Thymus wt. ([1]; Table VIII, 10 mg/kg/day s.c.) was 277 ± 25 mg and the “Thymus wt. Inhibition” value ([1]; Table VIII, 10 mg/kg/day s.c.) was 49.6%. For the same molecule, the Body wt. gain ([3]; Table V-a, 0.3 μg/pellet) was 35.6 ± 1.0 g, the “Granulation tissue Dry wt.” value ([3]; Table V-a, 0.3 μg/pellet) was 55.1 ± 6.2 mg and the “Granulation tissue Dry wt. Inhibition” value ([3]; Table V-a, 0.3 μg/pellet) was 31.2%. The “Granulation tissue Wet wt.” value ([3]; Table V-a, 0.3 μg/pellet) was 454 ± 27 mg, the “Granulation tissue Wet wt. Inhibition” value ([3]; Table V-a, 0.3 μg/pellet) was 13.5% and the Thymus wt. ([3]; Table V-a, 0.3 μg/pellet) was 523 ± 28 mg. The Body wt. gain ([3]; Table V-a, 1 μg/pellet) was 31.9 ± 0.8 g, the “Granulation tissue Dry wt.” value ([3]; Table V-a, 1 μg/pellet) was 42.9 ± 5.1 mg and the “Granulation tissue Dry wt. Inhibition” value ([3]; Table V-a, 1 μg/pellet) was 46.4%. For the same molecule, the “Granulation tissue Wet wt.” value ([3]; Table V-a, 1 μg/pellet) was 415 ± 30 mg, the “Granulation tissue Wet wt. Inhibition” value ([3]; Table V-a, 1 μg/pellet) was 21.0% and the Thymus wt. ([3]; Table V-a, 1 μg/pellet) was 453 ± 21 mg. For the same molecule, the Body wt. gain ([3]; Table V-a, 3 μg/pellet) was 34.1 ± 1.9 g, the “Granulation tissue Dry wt.” value ([3]; Table V-a, 3 μg/pellet) was 29.7 ± 3.2 mg and the “Granulation tissue Dry wt. Inhibition” value ([3]; Table V-a, 3 μg/pellet) was 62.9%. The “Granulation tissue Wet wt.” value ([3]; Table V-a, 3 μg/pellet) was 360 ± 18 mg, the “Granulation tissue Wet wt. Inhibition” value ([3]; Table V-a, 3 μg/pellet) was 31.4% and the Thymus wt. ([3]; Table V-a, 3 μg/pellet) was 504 ± 42 mg. The Body wt. gain ([3]; Table V-a, 10 μg/pellet) was 33.1 ± 1.6 g, the “Granulation tissue Dry wt.” value ([3]; Table V-a, 10 μg/pellet) was 28.5 ± 2.8 mg and the “Granulation tissue Dry wt. Inhibition” value ([3]; Table V-a, 10 μg/pellet) was 64.4%. For the same molecule, the “Granulation tissue Wet wt.” value ([3]; Table V-a, 10 μg/pellet) was 350 ± 13 mg, the “Granulation tissue Wet wt. Inhibition” value ([3]; Table V-a, 10 μg/pellet) was 33.3% and the Thymus wt. ([3]; Table V-a, 10 μg/pellet) was 547 ± 26 mg. The “Relative potency (ED40)” value [3] was 529, the “Relative potency (ED60)” value [3] was 277 and the ED40 [3] was 0.58 μg/pellet. It also gave an ED50 [3, 5] of 1.20 μg/pellet and an ED60 [3] of 2.49 μg/pellet.
